The values below are quoted from earlier work in patent publication US20240230688A1, “METHOD FOR DETERMINING PERSONALIZED OMEGA-3 DOSE” (SOCIETE DES PRODUITS NESTLE S.A., priority 2021, published 2024).

SMILES strings stand for the structures.

In this series the test system is pregnant women. The following applies: women who took supplement during pregnancy compared to those who did not.

Consider `CC/C=C\C/C=C\C/C=C\C/C=C\C/C=C\C/C=C\CCC(=O)O` [DHA supplement, (4Z,7Z,10Z, 13Z, 16Z, 19Z)-4,7,10,13,16, 19-Docosahexaenoic acid], for which the “less likely to have early preterm birth” value is 42%.
